In US10813956B2, “Methods for making and using antimicrobial peptides” (REGENTS OF THE UNIVERSITY OF MINNESOTA, priority 2012, dated 2020):
In brackets after ≈: the same amount, converted by molar mass. Entries after “also recorded” stand apart in the source; their conditions may differ. Residues, ends and D or L forms follow the SMILES beside them.

Columns and labels:
[1] = system: Salmonella; assay: Antimicrobial activity of supernatants from recombinant L. lactis (CFU/ml and OD600); format: cell-based
Procedure: (§1) The loss of cell viability was monitored to determine the antimicrobial activity of the supernatants from the recombinant L. lactis strains. Briefly, 0.3 ml of fresh medium, individually inoculated with the target strains, was added to tubes containing 0.7 ml of the supernatants, to reach a final concentration of 1×10^3 cells/ml. As a control, a supernatant sample from the L. lactis strain containing only the expression vector pMSP3545 (C-SN) was used. Tubes were incubated at 37° C. with agitation. Samples were taken at 30 min, 2 and 6 h, and the number of colony forming units per ml (CFU/ml) was determined by plating 25 μl on LB agar plates. The plates were incubated for 16 h at 37° C., and the number of viable cells was assessed by counting CFUs. Additionally, the OD600 was monitored up to 15 h post-inoculation to follow the influence of AMPs on culture growth.
(§2) Growth of pathogenic and non-pathogenic E. coli strains was assessed in medium containing these AMP-SNs while only pathogenic Salmonella strains were tested. In all cases, AMP-SNs diluted 7:3 with LB were inoculated with each indicator strain and growth was monitored spectrophotometrically at 600 nm for 15 hr.

[2] = system: E. coli; assay: as above; format: cell-based, Escherichia coli; conditions: 6 h post-inoculation; supernatant of recombinant L. lactis; pathogenic and non-pathogenic E. coli
Procedure: as §1, §2

[3] = system: S. typhimurium; assay: Antimicrobial activity of supernatants from recombinant L. lactis (culture titer); format: cell-based, Salmonella typhimurium; conditions: FIG. 3a; by 2 h post-inoculation
Procedure: as §1, §2

[4] = system: S. infantis; assay: as above; format: cell-based, Salmonella infantis; conditions: FIG. 3a; by 2 h post-inoculation
Procedure: as §1, §2

[5] = system: E. coli; format: cell-based, Escherichia coli
Procedure: (§3) MICs of the synthetic AMPs were determined in triplicate by a liquid growth inhibition microdilution assays in flat-bottom sterile polypropylene 96-well plates (Maxisorp, Nunc, Roskilde, Denmark), in a final volume of 150 μl. The bacteria were diluted 2% in fresh media and grown to an OD600=0.5±0.05 (OD600=1≈10^9 cells/ml). The cells were diluted 50-fold to 10^7 cells/ml in fresh media. The AMP stocks were serially diluted (150 μl/well) in liquid growth media in a 96-well plate, covering a concentration range of 1,000 μg/ml-1 ng/ml. Briefly, 150 μl of the serially diluted AMPs were inoculated with 5 μl of the bacterial strains to achieve a final indicator concentration of 3×10^5 cells/ml. For each strain a row with no peptide was included as growth control, and for each test a row of medium-only wells was included as a sterility control. Plates were then incubated at 37° C. for 16-20 h without shaking, and growth inhibition was assessed measuring OD600 using a microplate reader (SpectraMax® Plus384; Molecular Devices, Sunnyvale, Calif., USA). MICs were identified as the lowest antimicrobial concentration where the OD600 […].

[6] = system: L. lactis IL1403; assay: MIC of synthetic AMPs, liquid growth inhibition microdilution assay; format: cell-based, Lactococcus lactis; conditions: synthetic peptide; for L. lactis growth inhibition: all concentrations tested (up to 1 mg/ml)
Procedure: as §3

Compound | Salmonella growth (rate) reduction relative to C-SN ([1]; 10 to 15 h post-inoculation) [%] | E. coli culture density/concentration reduction relative to C-SN [2] [fold] | S. typhimurium culture density reduction relative to C-SN [3] [fold] | S. infantis culture density/growth reduction relative to C-SN (fraction) [4] | MIC against indicator E. coli strains [5] [µg/mL] | L. lactis growth inhibition [6] | Concentration up to which L. lactis remained viable ([6]; highest concentration tested) [mg/mL] | Salmonella growth inhibition at longer times ([1]; 10-15 h post-inoculation, versus C-SN) | S. infantis culture density reduction relative to C-SN [4] [fold]
CC[C@H](C)[C@H](NC(=O)CNC(=O)[C@H](CCCCN)NC(=O)[C@@H](NC(=O)[C@H](CC(C)C)NC(=O)[C@H](CO)NC(=O)CNC(=O)[C@H](CC(C)C)NC(=O)CNC(=O)[C@H](C)NC(=O)[C@H](CCCCN)NC(=O)[C@H](Cc1ccccc1)NC(=O)[C@@H](NC(=O)[C@H](CC(=O)O)NC(=O)[C@H](CCCCN)NC(=O)[C@H](CC(C)C)NC(=O)CN)[C@@H](C)CC)C(C)C)C(=O)N[C@@H](C)C(=O)N[C@@H](C)C(=O)N[C@@H](Cc1c[nH]cn1)C(=O)N[C@H](C(=O)N[C@@H](C)C(=O)N[C@@H](CC(N)=O)C(=O)O)C(C)C [Alyteserin, Alyteserin-1a] (H-GLKDIFKAGLGSLVKGIAAHVAN-OH; N-terminus and C-terminus assumed) | 15 | 20 | 10 | about one-half | 500 (≈ 219 µM) | not achieved | > 1 |  | 
CC(C)C[C@H](NC(=O)[C@H](Cc1ccc(O)cc1)NC(=O)[C@@H]1CCCN1C(=O)[C@H](CCCNC(=N)N)NC(=O)[C@@H]1CCCN1C(=O)[C@H](CCCCN)NC(=O)[C@H](CC(=O)O)NC(=O)[C@@H]1CCCN1C(=O)[C@@H](N)CCCNC(=N)N)C(=O)N1CCC[C@H]1C(=O)N[C@@H](CCCNC(=N)N)C(=O)N1CCC[C@H]1C(=O)N[C@@H](CCCNC(=N)N)C(=O)N1CCC[C@H]1C(=O)N1CCC[C@H]1C(=O)N[C@@H](CCCNC(=N)N)C(=O)N1CCC[C@H]1C(=O)N[C@H](C(=O)N[C@@H](CCCNC(=N)N)C(=O)O)C(C)C [A3APO, A3APO (single chain)] (H-RPDKPRPYLPRPRPPRPVR-OH; N-terminus and C-terminus assumed) |  |  | 4 |  |  | not inhibited; also recorded: not achieved |  | not observed | 20
